Active and inactive are the calls of the source. No cut-off for these calls is given here.
What was measured:
A-375 = experiment: Anticancer activity against human A-375 cells assessed as inhibition of cell growth by MTT assay; assay type: functional, cell-based
[1] = target: T1, Heat shock protein 75 kDa, mitochondrial (Homo sapiens) (UniProt Q12931); experiment: Inhibition of human TRAP1 assessed as fold increase in ATPase activity at 20 uM
T1 sequence (whole entry): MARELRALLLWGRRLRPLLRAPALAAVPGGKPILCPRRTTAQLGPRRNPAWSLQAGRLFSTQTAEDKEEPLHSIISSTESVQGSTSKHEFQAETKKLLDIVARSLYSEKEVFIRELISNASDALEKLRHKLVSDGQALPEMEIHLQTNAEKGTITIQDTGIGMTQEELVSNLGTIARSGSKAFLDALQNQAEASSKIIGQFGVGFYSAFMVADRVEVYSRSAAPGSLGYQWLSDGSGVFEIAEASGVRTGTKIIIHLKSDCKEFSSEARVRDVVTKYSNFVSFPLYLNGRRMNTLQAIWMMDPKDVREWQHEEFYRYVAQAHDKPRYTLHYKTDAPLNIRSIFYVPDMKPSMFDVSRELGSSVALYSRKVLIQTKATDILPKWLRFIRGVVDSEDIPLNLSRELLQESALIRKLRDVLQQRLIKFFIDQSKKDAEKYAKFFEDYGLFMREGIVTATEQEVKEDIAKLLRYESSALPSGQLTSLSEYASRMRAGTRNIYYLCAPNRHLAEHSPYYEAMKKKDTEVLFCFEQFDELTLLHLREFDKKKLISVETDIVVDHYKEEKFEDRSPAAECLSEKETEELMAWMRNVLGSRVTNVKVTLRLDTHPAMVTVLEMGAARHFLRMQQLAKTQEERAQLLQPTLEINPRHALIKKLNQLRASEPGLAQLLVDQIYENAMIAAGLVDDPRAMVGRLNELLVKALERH

HCC827 = experiment: Antitumor activity against human HCC827 cells xenografted in female nude mouse model assessed as suppression of tumor growth at 100 mg/kg, ip measured every two days for 14 days; assay type: functional, organism-based; details: time 14.0 day
[2] = Drug localization in mitochondria of human HCC827 cells assessed as increase in green fluorescence by measuring pearson correlation coefficient at 5 uM incubated for 10 mins by mito-tracker green dye based confocal scanning microscopy analysis; assay type: ADME; details: hcc827, 10 min
HeLa [3] = experiment: Induction of mitophagy in human HeLa cells harbouring mCherry-GFP tag assessed as visible mCherry fluorescence at 40 uM incubated for 24 hrs by confocal microscopy analysis; assay type: functional, cell-based
HeLa [4] = experiment: Induction of mitophagy in human HeLa cells assessed as colocalization of mitochondria and lysosomes at 40 uM by mitoGFP staining based confocal microscopy analysis; assay type: functional, cell-based
HeLa [5] = experiment: Induction of mitophagy in human HeLa cells harbouring mCherry-GFP tag assessed as reduction in GFP fluorescence at 40 uM incubated for 24 hrs by confocal microscopy analysis; assay type: functional, cell-based
HeLa [6] = experiment: Induction of mitophagy in human HeLa cells assessed as colocalization of mitochondria and lysosomes at 40 uM by lysotracker red staining based confocal microscopy analysis; assay type: functional, cell-based
[7] = Drug localization in mitochondria of human HCC827 cells assessed as increase in green fluorescence by measuring pearson correlation coefficient at 10 uM incubated for 10 mins by mito-tracker green dye based confocal scanning microscopy analysis; assay type: ADME; details: hcc827, 10 min
[8] = Drug uptake in human HCC827 cells mitochondria assessed as increase in fluorescence intensity at 10 uM by fluorescence emission spectroscopy analysis; assay type: ADME; details: hcc827, 10 µM
[9] = Drug metabolism in human HCC827 cells mitochondria assessed as 2-(2-(4-hydroxystyryl)-4H-chromen-4-ylidene)malononitrile hydrolysis at 10 uM incubated for 5 mins by fluorescence emission spectroscopy analysis; assay type: ADME; details: hcc827, 5 min

SMILES: O=C(CCCCC(CCSCc1ccccc1)SCc1ccccc1)OCCCCCCCCCC[P+](c1ccccc1)(c1ccccc1)c1ccccc1 (configuration not stated)
- IC50 (A-375): 100 nM

SMILES: CC1=C(C)C(=O)C(CCCCCCCCCC[P+](c2ccccc2)(c2ccccc2)c2ccccc2)=CC1=O
- fold change (FC) [1]: 1.4

SMILES: COc1cc2ncnc(Nc3ccc(F)c(Cl)c3)c2cc1OCCCN1CCOCC1
- Activity (HCC827): Active

SMILES: N#CC(C#N)=C1C=C(/C=C/c2ccc(O)cc2)Oc2ccccc21
- Drug uptake [2]: 0.21

SMILES: N#CC(C#N)=NNc1cccc(Cl)c1
- Activity (HeLa [3]): Active
- Activity (HeLa [4]): Active
- Activity (HeLa [5]): Active
- Activity (HeLa [6]): Active

SMILES: N#CC(C#N)=C1C=C(/C=C/c2ccc(OC(=O)OCCCCCCCCCC[P+](c3ccc(C(F)(F)F)cc3)(c3ccc(C(F)(F)F)cc3)c3ccc(C(F)(F)F)cc3)cc2)Oc2ccccc21.[Br-]
- Drug uptake [7]: 0.46
- Drug uptake [8]: Not_active
- Drug metabolism [9]: metabolite_detected

SMILES: O=C(O)CCCCC(CCSCc1ccccc1)SCc1ccccc1 (configuration not stated) [CPI 613]
- IC50 (A-375): > 100000 nM

— ChEMBL document CHEMBL6182916, “Unexpected Discovery of a Novel Triphenylphosphonium Alkylalcohol That Triggers Cancer Cell Death via Mitophagy and Ferroptosis” (J Med Chem, 2025)
